For one experiment, the system named is HaCaT cells. Put plainly: Cell viability assay (resazurin), cytotoxicity in non-malignant cells. Format: cell-based, human. The following applies: Homo sapiens, HaCaT, read-out: IC50 HaCaT (Non-malignant keratinocyte). The procedure: (§1) Cells were grown in Dulbecco's Modified Eagle's Medium (DMEM) supplemented with 100 U/mL penicillin, 100 µg/mL streptomycin and 10% fetal bovine serum. HL60 cell line (acute myeloid leukaemia, AML) was obtained from ATCC. It was cultured in IMDM medium supplemented with 100 U/mL penicillin, 100 µg/mL streptomycin and 10% fetal bovine serum. U937 (AML) and Jurkat cells (ALL) were obtained from DMSZ, Braunschweig, Germany, and ATCC, respectively. They were cultivated in RPMI medium, supplemented with 100 U/mL penicillin, 100 µg/mL streptomycin and 10% fetal bovine serum. […] All cell lines were cultured at 37 ° C with 5% CO2 in a humidified incubator. Cell culture reagents were purchased from Biowest. Exponentially growing cells (3000-6000 cells per well) were seeded in 96-well plates. After 24 hours, cells were treated with the drugs for 72 hours. The cell viability was then estimated with the resazurin assay, a colorimetric technique based on the capability of viable cells to reduce the blue reagent resazurin to the pink-soluble product resorufin. The amount of resorufin produced is proportional to the number of viable cells. Briefly, cells were washed once with phosphate buffered saline (PBS) and 150 µL resazurin (20 µg/mL in medium) was added to each well. The plates were incubated for 3 hours at 37 °C, 5% CO2, and finally optical densities were measured at 540 and 620 nm with a multiwell plate spectrophotometer reader (Multiskan EX Labsystems). Cell viability was calculated as a percentage compared to non-treated cells. The results were expressed as the means ± standard error of the mean (SEM). All data are from at least three independent experiments.

The subject of experiment [1] is A549 (human lung adenocarcinoma cells). Put plainly: Cell viability assay (resazurin), cytotoxic activity against solid tumours. In kind it is cell-based. The following applies: for IC50: Homo sapiens, read-out: IC50 A549 (Lung adenocarcino ma); for S.I. A549 (Selectivity Index): IC50 HaCaT divided by IC50 A549, mean of independent experiments. The procedure: as §1, with “The plates were incubated for 3 hours at 37 °C, 5% CO2, and finally optical densities were measured at 540 and 620 nm with a multiwell plate spectrophotometer reader (Multiskan EX Labsystems).” left out, “experiments. The selectivity index (S.I.) values were calculated over each cancer cell line as the mean of the IC50 value in the non-malignant cell line (HaCaT) by the IC50 in the respective cancer cell line obtained in each independent experiment.” for “experiments.”

Experiment [2] deals with MeWo (human melanoma cells). The description is as above. In kind it is cell-based. Particulars: for IC50: Homo sapiens, MeWo, read-out: IC50 MeWo (Melanoma; BRAF WT); for S.I. MeWo (Selectivity Index): IC50 HaCaT divided by IC50 MeWo, mean of independent experiments. The procedure:
as §1, with “The plates were incubated for 3 hours at 37 °C, 5% CO2, and finally optical densities were measured at 540 and 620 nm with a multiwell plate spectrophotometer reader (Multiskan EX Labsystems).” left out, “experiments. The selectivity index (S.I.) values were calculated over each cancer cell line as the mean of the IC50 value in the non-malignant cell line (HaCaT) by the IC50 in the respective cancer cell line obtained in each independent experiment.” for “experiments.”

For experiment [3], the system named is T24 (human bladder cancer cells). The description is as above. In kind it is cell-based. The following applies: for IC50: Homo sapiens, read-out: IC50 T24 (Bladder cancer); for S.I. T24 (Selectivity Index): IC50 HaCaT divided by IC50 T24, mean of independent experiments. How it is done: as §1, with “The plates were incubated for 3 hours at 37 °C, 5% CO2, and finally optical densities were measured at 540 and 620 nm with a multiwell plate spectrophotometer reader (Multiskan EX Labsystems).” left out, “experiments. The selectivity index (S.I.) values were calculated over each cancer cell line as the mean of the IC50 value in the non-malignant cell line (HaCaT) by the IC50 in the respective cancer cell line obtained in each independent experiment.” for “experiments.”

Experiment [4] relates to HL60 (Acute myeloid leukaemia). Put plainly: Antileukemic activity, cell viability (CCK-8 Cell Counting Kit). Format: cell-based. The following applies: Homo sapiens, HL-60; 18 h incubation, compounds 0 - 100 µM; read-out: IC50 Cancer cells HL60 (Acute myeloid leukaemia). How it is done: (§2) HaCaT cells (human keratinocytes, reference control), A549 (human lung adenocarcinoma cells), MeWo (human melanoma cells) and T24 (human bladder cancer cells) were purchased from Cell Lines Service (CLS). Cells were grown in Dulbecco's Modified Eagle's Medium (DMEM) supplemented with 100 U/mL penicillin, 100 µg/mL streptomycin and 10% fetal bovine serum. HL60 cell line (acute myeloid leukaemia, AML) was obtained from ATCC. It was cultured in IMDM medium supplemented with 100 U/mL penicillin, 100 µg/mL streptomycin and 10% fetal bovine serum. U937 (AML) and Jurkat cells (ALL) were obtained from DMSZ, Braunschweig, Germany, and ATCC, respectively. They were cultivated in RPMI medium, supplemented with 100 U/mL penicillin, 100 µg/mL streptomycin and 10% fetal bovine serum. OPM-2 cell line (MM), was obtained from DMSZ, Braunschweig, Germany and cultured in RPMI medium supplemented with 100 U/mL penicillin, 100 µg/mL streptomycin, 10% fetal bovine serum and 1X GlutaMAXTM. All cell lines were cultured at 37 ° C with 5% CO2 in a humidified incubator. Cell culture reagents were purchased from Biowest.
(§3) For the leukemic cell lines, the CCK-8 Cell Counting Kit (Dojindo Molecular Technologies) was used according to manufacturers instructions. Briefly, 50.000 cells were seeded in each well of a 96 well plate, and they were treated with increased amounts (0 - 100 µM) of each of the compounds, and incubated for 18 h at 37 °C, 5% CO2. After this period, 7 µl of the CCK-8 reagent were added to each well, and cells were further incubated for 2 h at 37 °C, 5% CO2. OD at 450 nm was obtained using a MultiskanTM GO microplate reader (Thermo Fisher Scientific, Waltham, MA, EE.UU). Cell viability in each condition was normalized to the measurement obtained in the non treated samples (100%), and were represented as average ± standard error of the mean (SEM).

In experiment [5] the test system is Jurkat (Acute lymphoblastic leukaemia). The experiment is described as above. In kind it is cell-based. Particulars: Homo sapiens, 18 h incubation, compounds 0 - 100 µM, read-out: IC50 Cancer cells Jurkat (Acute lymphoblastic leukaemia). How it is done: as §2, §3
Another experiment deals with OPM-2 (Multiple myeloma). Described as above. Format: cell-based. The following applies: Homo sapiens, 18 h incubation, compounds 0 - 100 µM, read-out: IC50 Cancer cells OPM-2 (Multiple myeloma). The procedure: as §2, §3
Experiment [6] deals with U937 (Acute myeloid leukaemia). The experiment is described as above. In kind it is cell-based. Particulars: Homo sapiens, U-937; 18 h incubation, compounds 0 - 100 µM; read-out: IC50 Cancer cells U937 (Acute myeloid leukaemia). The procedure:
as §2, §3

Setting [7] is: 72 h treatment, resazurin assay, mean ± SEM.
Where [8] appears, read: A549, 72 h treatment, resazurin assay, mean ± SEM.

The results in this text go back to EP4534542A1, “THIOSUGAR BASED ISOTHIOCYANATES AND USES THEREOF” (Universidad de Sevilla, priority 2023, dated 2025).

Where two headings read alike, the source gives them in different places. Where only a bound is given, the exact number is not on record here.

Take `CC(=O)OC[C@H]1O[C@@H](S(=O)(=O)c2ccccc2)[C@H](OC(C)=O)[C@@H](N=C=S)[C@@H]1OC(C)=O` [Compound 21β, Phenyl 2,4,6-tri-O-acetyl-3-isothiocyanato-1,3-dideoxy-1-sulfonyl-β-D-glucopyranose]: the IC50 came to 55.7 ± 2.4 µM with HaCaT cells (72 h); 37.5 ± 8.6 µM in experiment [1] (A549, 72 h); 43.5 ± 9.4 µM in experiment [2] (72 h); 36.4 ± 9.3 µM in experiment [3] (72 h); 13.1 µM in experiment [4]; 24.9 µM in experiment [5]. The results for the IC50 (with OPM-2 (Multiple myeloma); in experiment [6]) were 19.7 µM and around 48.3 µM, respectively. Also, in experiment [1], the “S.I. A549 (Selectivity Index)” value is reported as 1.7±0.4. The “S.I. MeWo (Selectivity Index)” value in experiment [2] is listed as 1.5±0.3. In addition, the “S.I. T24 (Selectivity Index)” value in experiment [3] is given as 1.9±0.4.
`CCS(=O)(=O)[C@@H]1O[C@H](COC(C)=O)[C@@H](OC(C)=O)[C@H](N=C=S)[C@H]1OC(C)=O` [Compound 20β, Ethyl 2,4,6-tri-O-acetyl-3-isothiocyanato-1,3-dideoxy-1-sulfonyl-β-D-glucopyranose]: the IC50 with HaCaT cells (72 h) was found to be 84.9 ± 15.2 µM; in experiment [1] (A549, 72 h), 47.9 ± 10 µM; in experiment [2] (72 h), 53.6 ± 7.4 µM; in experiment [3] (72 h), 39.3 ± 3.7 µM; in experiment [4], 19.8 µM; in experiment [5], 45.1 µM. In addition, the IC50 in the experiment with OPM-2 (Multiple myeloma) came out at 37.2 µM; in experiment [6], 34.7 µM. In experiment [1], the “S.I. A549 (Selectivity Index)” value is 1.9±0.3. Further, the “S.I. MeWo (Selectivity Index)” value in experiment [2] turned out to be 1.6±0.3. For the same compound, in experiment [3], the “S.I. T24 (Selectivity Index)” value was determined as 2.1±0.2.
For the compound `CC(=O)OCC1OC([S+](C)[O-])C(OC(C)=O)C(N=C=S)C1OC(C)=O` [(SS)-16β, Methyl 2,4,6-tri-O-acetyl-3-isothiocyanato-1,3-dideoxy-1-(S)-sulfinyl-β-D-glucopyranoside], the IC50 in the experiment on HaCaT cells (setting [7]) is above 100 µM; in experiment [1] (setting [8]), 109 ± 23.7 µM; in experiment [2] (setting [7]) it was 122 ± 20.7 µM; in experiment [3] (setting [7]), 94.2 ± 13.2 µM; in experiment [4] it was 36.9 µM; in experiment [5], 128 µM. Moreover, the 50% inhibitory concentration (IC50) in the experiment on OPM-2 (Multiple myeloma) was 64.9 µM; in experiment [6] it was around 51.2 µM.
Consider `CC(=O)OC[C@H]1O[C@H](Sc2ccccc2)[C@H](OC(C)=O)[C@@H](N=C=S)[C@@H]1OC(C)=O` [Compound 15α, Phenyl 2,4,6-tri-O-acetyl-3-isothiocyanato-1,3-dideoxy-1-thio-α-D-glucopyranoside], for which the IC50 with HaCaT cells (setting [7]) was found to be 17.7 ± 1 µM; in experiment [1] (setting [8]) it was 14.1 ± 2.9 µM; in experiment [2] (setting [7]) it was 18.8 ± 2.4 µM; in experiment [3] (setting [7]), 15.3 ± 2.1 µM; in experiment [4] it was 4.2 µM; in experiment [5] it was 14.4 µM. The IC50 in the experiment on OPM-2 (Multiple myeloma) was found to be 10.2 µM; in experiment [6] it was 8.3 µM. For the same compound, the “S.I. A549 (Selectivity Index)” value in experiment [1] amounted to 1.4±0.3. Further, in experiment [2], the “S.I. MeWo (Selectivity Index)” value came out at 1.0±0.1. In addition, in experiment [3], the “S.I. T24 (Selectivity Index)” value stood at 1.2±0.1.
As to `C[S+]([O-])CCCN=C=S` (racemic) [rac-5, 1-isothiocyanato-3-(methylsulfinyl)propane, reference compound], the IC50 with HaCaT cells (72 h) turned out to be 33 ± 5.8 µM; in experiment [1] (A549, 72 h), 20.7 ± 5.7 µM; in experiment [2] (72 h) it was 32.8 ± 5.8 µM; in experiment [3] (72 h) it was 12.2 ± 2.9 µM; in experiment [4], 11 µM; in experiment [5] it was 13.7 µM. The IC50 in the experiment on OPM-2 (Multiple myeloma) was 19.4 µM; in experiment [6], 8.5 µM. Further, the “S.I. A549 (Selectivity Index)” value in experiment [1] is on record as 1.8±0.3. For the same compound, in experiment [2], the “S.I. MeWo (Selectivity Index)” value worked out at 1.0±0.1. In addition, in experiment [3], the “S.I. T24 (Selectivity Index)” value was 2.9±0.3.
